From patent publication US5741811A, “Polythiophene anti-tumor agents” (Purdue Research Foundation, priority 1996, dated 1998)
Read-outs that look alike come from different tables or passages of the source.

Assays:
Assay in all cases: NCI human tumor cell line panel growth inhibition
Format in all cases: cell-based
[1] = test system: A549/ATCC lung cancer cells; conditions: for GI50: Homo sapiens, read-out: Log10 GI50 (converted)
HOP-18 lung cancer cells = test system: HOP-18 lung cancer cells
HOP-62 lung cancer cells = test system: HOP-62 lung cancer cells
[2] = test system: NCI-H226 lung cancer cells; conditions: for GI50: Homo sapiens, read-out: Log10 GI50 (converted)
[3] = test system: NCI-H322M lung cancer cells; conditions: for GI50: Homo sapiens, read-out: Log10 GI50 (converted)
[4] = test system: NCI-H460 lung cancer cells; conditions: for GI50: Homo sapiens, read-out: Log10 GI50 (converted)
[5] = test system: NCI-H522 lung cancer cells; conditions: read-out: Log10 GI50 (converted)
[6] = test system: LXPL-529 lung cancer cells; conditions: for GI50: Homo sapiens, read-out: Log10 GI50 (converted)
[7] = test system: COLO-205 colon cancer cells; conditions: COLO-205, colon cancer; for GI50: Homo sapiens, read-out: Log10 GI50 (converted)
DLD-1 colon cancer cells = conditions: for GI50: Homo sapiens, read-out: Log10 GI50 (converted)
[8] = test system: HCT-116 colon cancer cells; conditions: for GI50: Homo sapiens, read-out: Log10 GI50 (converted)
[9] = test system: HCT-15 colon cancer cells; conditions: for GI50: Homo sapiens, read-out: Log10 GI50 (converted)
HT29 colon cancer cells = conditions: for GI50: Homo sapiens, HT-29, read-out: Log10 GI50 (converted)
[10] = test system: KM20L2 colon cancer cells; conditions: for GI50: Homo sapiens, KM-20L2, read-out: Log10 GI50 (converted)
[11] = test system: OVCAR-8 ovarian cancer cells; conditions: for GI50: Homo sapiens, read-out: Log10 GI50 (converted)
Method: (§1) The first screen measures the cytotoxicity against a panel of sixty different human tumor cell lines. This assay provides data regarding the general cytotoxicity of an individual compound.
(§2) The length of a bar is indicative of differential cytotoxicity against a specific type of tumor cells or tumor panels.
(§3) The antitumor cytotoxicity of the thiophene compounds tested in the first two in vitro assays was measured by a microculture assay using either 3-(4,5-dimethylthiazol-2-yl)-2,5-diphenyltetrazolium bromide (MTT) or sulforhodamine B (SRB). [M. R. Boyd in "Principles and Practices of Oncology," V. T. DeVita, Jr., S. Hellman and S. A. Rosenberg (Eds.), Vol. 3, PPO Updates, Number 10, 1989.] This assay has an advantage over in vivo assay in that results are obtained within a week as opposed to several months. The assay was carried out in 96-well microtiter plates. The MTT assay is based on the production of a dark blue formazan product by dehydrogenase in the mitochondria of live tumor cells after exposure to drug for 6 days [M. C. Alley, D. A. Scudiero, A. Monks, M. L. Hursey, M. J. Czerwinski, D. L. Fine, B. J. Abbott, J. G. Mayo, R. H. Shoemaker and M. R. Boyd, Cancer Res., 48, 589, 1988.] Thus, only live cells are stained and can be measured at 570 nm. The SRB assay is based on the binding of the anionic group to the basic amino acid residues of cellular proteins after exposure of tumor cells to drug for 2 days [P. Skehan, R. Storeng, D. Scudiero, A. Monks, J. McMahon, D. Vistica, J. T. Warren, H. Bohesch, S. Kenney and M. R. Boyd, J. Nat. Cancer Inst., 82, 1107, 1990.] Thus, the total protein (viability) can be measured at 564 nm.

[12] = test system: SW-620 colon cancer cells; conditions: for GI50: Homo sapiens, read-out: Log10 GI50 (converted)
Method: as §1, §2, §3

XP-498 CNS cancer cells = conditions: read-out: Log10 GI50 (converted)
Method: as §1, §2, §3

SF-295 CNS cancer cells = conditions: read-out: Log10 GI50 (converted)
SNB-75 CNS cancer cells = conditions: Homo sapiens, read-out: Log10 GI50 (converted)
U251 CNS cancer cells = conditions: Homo sapiens, U-251, read-out: Log10 GI50 (converted)
UACC-257 melanoma cells = conditions: for GI50: Homo sapiens, read-out: Log10 GI50 (converted)
[13] = test system: OVCAR-3 ovarian cancer cells; conditions: for GI50: Homo sapiens
[14] = test system: OVCAR-5 ovarian cancer cells; conditions: for GI50: Homo sapiens, read-out: Log10 GI50 (converted)
786-0 renal cancer cells = conditions: read-out: Log10 GI50 (converted)
[15] = test system: CAKI-1 renal cancer cells; conditions: for GI50: Homo sapiens
[16] = test system: RXF-393 renal cancer cells; conditions: for GI50: Homo sapiens, read-out: Log10 GI50 (converted)
[17] = test system: RXF-631 renal cancer cells; conditions: Homo sapiens, read-out: Log10 GI50 (converted)
TK-10 renal cancer cells = conditions: for GI50: Homo sapiens, read-out: Log10 GI50 (converted)
UO-31 renal cancer cells = conditions: read-out: Log10 GI50 (converted)
[18] = test system: IGROV-1 ovarian cancer cells; conditions: for GI50: Homo sapiens, read-out: Log10 GI50 (converted)
EKVX lung cancer cells = conditions: read-out: Log10 GI50 (converted)
[19] = test system: NCI-H23 lung cancer cells; conditions: read-out: Log10 GI50 (converted)
[20] = test system: HCC-2998 colon cancer cells
SF-268 CNS cancer cells = conditions: read-out: Log10 GI50 (converted)
MALME-3M melanoma cells = conditions: read-out: Log10 GI50 (converted)
M-14 melanoma cells = conditions: M14, read-out: Log10 GI50 (converted)
SK-MEL-2 melanoma cells = conditions: read-out: Log10 GI50 (converted)
[21] = test system: OVCAR-4 ovarian cancer cells
From the text: (§4) The cytotoxic activity of the present polythiophene compounds have been measured utilizing three different assays or screens. The first screen measures the cytotoxicity against a panel of sixty different human tumor cell lines. This assay provides data regarding the general cytotoxicity of an individual compound. In particular this type of assay is useful in identifying compounds which have enhanced cytotoxic activity against slow growing tumors as compared to faster growing tumor cells such as leukemia tumor cell lines. The identification of such compounds is critical since previously identified antitumor agents have low cytotoxic activity against slower growing tumors. […] The specificity of a cytotoxic compound for tumor cell lines relative to normal cells is an important characteristic of an effective antitumor agent.
as §2, §3

SK-MEL-28 melanoma cells = conditions: read-out: Log10 GI50 (converted)
From the text: as §4, §2, §3

UACC-62 melanoma cells = test system: UACC-62 melanoma cells
[22] = test system: SK-OV-3 ovarian cancer cells
A-498 renal cancer cells = test system: A-498 renal cancer cells
ACHN renal cancer cells = conditions: read-out: Log10 GI50 (converted)
SN12C renal cancer cells = conditions: read-out: Log10 GI50 (converted)
SNB-19 CNS cancer cells = test system: SNB-19 CNS cancer cells
HOP-92 lung cancer cells = test system: HOP-92 lung cancer cells
From the text: as §4, §2, §3

KM12 colon cancer cells = test system: KM12 colon cancer cells
From the text: as §4, §2, §3

[23] = Homo sapiens, read-out: Log10 GI50 (converted)
[24] = CAKI-1, renal cancer, read-out: Log10 GI50 (converted)

OCc1ccc(-c2cccs2)s1
GI50 [1]: 8.91 µM
GI50 (HOP-18 lung cancer cells; [23]): 10.5 µM
GI50 (HOP-62 lung cancer cells; [23]): 9.77 µM
GI50 [2]: 0.316 µM
GI50 [3]: 30.2 µM
GI50 [4]: 1.35 µM
GI50 [5]: 95.5 µM
GI50 [6]: 0.288 µM
GI50 [7]: 3.63 µM
GI50 (DLD-1 colon cancer cells): 0.316 µM
GI50 [8]: 4.57 µM
GI50 [9]: 35.5 µM
GI50 (HT29 colon cancer cells): 8.51 µM
GI50 [10]: 1.58 µM
GI50 [11]: 52.5 µM
GI50 [12]: 4.68 µM
GI50 (XP-498 CNS cancer cells): 3.72 µM
GI50 (SF-295 CNS cancer cells): 38 µM
GI50 (SNB-75 CNS cancer cells): 0.389 µM
GI50 (U251 CNS cancer cells): 0.457 µM
GI50 (UACC-257 melanoma cells): 0.933 µM
GI50 ([13]; OVCAR-3, read-out: Log10 GI50 (converted)): 2.34 µM
GI50 [14]: 12.9 µM
GI50 (786-0 renal cancer cells): 32.4 µM
GI50 ([15]; CAKI-1, read-out: Log10 GI50 (converted)): 0.224 µM
GI50 [16]: 57.5 µM
GI50 [17]: 0.813 µM
GI50 (TK-10 renal cancer cells): 0.234 µM
GI50 (UO-31 renal cancer cells): 38.9 µM

OCc1ccc(-c2ccc(-c3ccc(-c4cccs4)s3)s2)s1
GI50 [2]: 5.89 µM
GI50 [6]: 1.05 µM
GI50 (XP-498 CNS cancer cells): 11 µM
GI50 (UACC-257 melanoma cells): 10.7 µM
GI50 [18]: 1.12 µM
GI50 [15, 24]: 0.617 µM
GI50 [17]: 11 µM
GI50 (TK-10 renal cancer cells): 0.891 µM

O=Cc1ccc(-c2ccc(-c3cccs3)s2)s1 [drawing 32]
GI50 [1]: 32.4 µM
GI50 (EKVX lung cancer cells): 55 µM
GI50 [19]: 55 µM
GI50 [2]: 0.0245 µM
GI50 [3]: 42.7 µM
GI50 [4]: 13.8 µM
GI50 [5]: 32.4 µM
GI50 [6]: < 0.01 µM
GI50 [7]: 5.37 µM
GI50 (DLD-1 colon cancer cells): 7.94 µM
GI50 [20, 23]: 17.8 µM
GI50 [8]: 0.0631 µM
GI50 [9]: 24 µM
GI50 (HT29 colon cancer cells): 24.5 µM
GI50 [10]: 0.49 µM
GI50 [11]: 53.7 µM
GI50 [12]: 0.537 µM
GI50 (SF-268 CNS cancer cells): 87.1 µM
GI50 (SF-295 CNS cancer cells): 69.2 µM
GI50 (SNB-75 CNS cancer cells): 31.6 µM
GI50 (MALME-3M melanoma cells): 79.4 µM
GI50 (M-14 melanoma cells): 63.1 µM
GI50 (SK-MEL-2 melanoma cells): 30.9 µM
GI50 [21, 23]: 30.9 µM
GI50 (SK-MEL-28 melanoma cells): 89.1 µM
GI50 (UACC-257 melanoma cells): 0.0468 µM
GI50 (UACC-62 melanoma cells; [23]): 0.01 µM
GI50 [18]: 0.0603 µM
GI50 ([13]; OVCAR-3, ovarian cancer, read-out: Log10 GI50 (converted)): 0.0302 µM
GI50 [14]: 0.138 µM
GI50 [22, 23]: 87.1 µM
GI50 (786-0 renal cancer cells): 43.7 µM
GI50 (A-498 renal cancer cells; Homo sapiens, A498, read-out: Log10 GI50 (converted)): 0.0437 µM
GI50 (ACHN renal cancer cells): 51.3 µM
GI50 [15, 24]: 0.0138 µM
GI50 [16]: 16.6 µM
GI50 (SN12C renal cancer cells): 47.9 µM
GI50 (TK-10 renal cancer cells): 0.525 µM
GI50 (UO-31 renal cancer cells): 41.7 µM

OCc1ccc(-c2ccc(CO)s2)s1 [drawing 33]
Log10 GI50 [1]: -5.91 M
Log10 GI50 (HOP-18 lung cancer cells): -5.51 M
Log10 GI50 (HOP-62 lung cancer cells): -5.52 M
Log10 GI50 [2]: -7.60 M
Log10 GI50 [3]: -5.77 M
Log10 GI50 [4]: -6.29 M
Log10 GI50 [6]: -6.33 M
Log10 GI50 [7]: -6.22 M
Log10 GI50 (DLD-1 colon cancer cells): -4.74 M
Log10 GI50 [20]: -6.40 M
Log10 GI50 [8]: -5.27 M
Log10 GI50 [9]: -4.19 M
Log10 GI50 (HT29 colon cancer cells): -5.04 M
Log10 GI50 [10]: -6.15 M
Log10 GI50 [11]: -5.23 M
Log10 GI50 [12]: -5.04 M
Log10 GI50 (SNB-19 CNS cancer cells): -4.72 M
Log10 GI50 (HOP-92 lung cancer cells): -4.09 M
Log10 GI50 (KM12 colon cancer cells): -4.35 M
Log10 GI50 [21]: -4.46 M
Log10 GI50 (UACC-257 melanoma cells): -6.00 M
Log10 GI50 (UACC-62 melanoma cells): -6.36 M
Log10 GI50 [18]: -6.57 M
Log10 GI50 ([13]; OVCAR-3, ovarian cancer): -5.70 M
Log10 GI50 [14]: -6.06 M
Log10 GI50 [22]: -5.80 M
Log10 GI50 (A-498 renal cancer cells): -7.71 M
Log10 GI50 ([15]; CAKI-1, renal cancer): -6.63 M
Log10 GI50 [16]: -7.05 M
Log10 GI50 (TK-10 renal cancer cells): -6.29 M
